According to patent US9745295B2, “Thiazole-substituted aminoheteroaryls as spleen tyrosine kinase inhibitors” (Merck Sharp & Dohme Corp., priority 2013, dated 2017):

Molecular target: T1, recombinant human GST-SYK (Homo sapiens, UniProt P43405)
T1 construct: purchased Carna Biosciences 08-176
Assay: Homogeneous Time-Resolved Fluorescence (HTRF) assay for the recombinant human Syk enzyme
Assay type: biochemical
Conditions: recombinant human GST-SYK 5 pM, ATP 25 μM, read-out: rhSYK IC50
How it was run: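 GST-tagged human Syk (5 pM) preincubated 10 min with inhibitor (0.1% DMSO) in pH 7.5 Tris buffer, then 45 min at room temperature with 250 nM biotinylated peptide, 5 mM Mg and 25 μM ATP. EDTA-quenched; Eu-anti-phosphotyrosine/SA-APC HTRF read after 30 min, giving IC50.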

For `COc1cc(Nc2nccc(C(F)(F)F)n2)cc(-c2cnc(C3(O)CCC(C(=O)O)C(C)(C)C3)s2)n1` (single isomer, unassigned) [Example 4.18, (1S,4R or 1R,4S)-4-hydroxy-4-[5-(6-methoxy-4-{[4-(trifluoromethyl)pyrimidin-2-yl]amino}pyridin-2-yl)-1,3-thiazol-2-yl]-2,2-dimethylcyclohexane carboxylic acid], which IC50 is on record?
The IC50 was 5.55 nM.

Which IC50 does the source give for `COc1ncc(Nc2nccc(C(F)(F)F)n2)cc1-c1cnc([C@@]2(O)CC[C@H](C(=O)O)C(C)(C)C2)s1` (single isomer, unassigned) [Example 4.19, (1S,4R or 1R,4S)-4-hydroxy-4-[5-(2-methoxy-5-{[4-(trifluoromethyl)pyrimidin-2-yl]amino}pyridin-3-yl)-1,3-thiazol-2-yl]-2,2-dimethylcyclohexane carboxylic acid] here?
The IC50 was 4.13 nM.

With `Cc1cc(Nc2ncc(F)c(C)n2)cc(-c2cnc(C(C)(O)[C@H]3CC[C@H](C(=O)O)CC3)s2)n1` (single isomer, unassigned) [Example 4.20, (trans)-4-((R or S)-1-(5-{4-[(5-fluoro-4-methylpyrimidin-2-yl)amino]-6-methylpyridin-2-yl}-1,3-thiazol-2-yl)-1-hydroxyethyl]cyclo-hexanecarboxylic acid] as the compound, how does the IC50 read?
Its IC50 is 4.4 nM.

With `COc1cc(Nc2nccc(C(F)(F)F)n2)cc(-c2cnc(C(C)(O)[C@H]3CC[C@H](C(=O)O)CC3)s2)n1` (single isomer, unassigned) [Example 4.21, (trans)-4-((R or S)-1-hydroxy-1-[5-(6-methoxy-4-{[4-(trifluoromethyl)pyrimidin-2-yl]amino}pyridin-2-yl)-1,3-thiazol-2-yl]ethyl}cyclohexane carboxylic acid] as the compound, how does the IC50 read?
Its IC50 is 2.12 nM.

With `COc1cc(Nc2nccc(C)n2)cc(-c2cnc(C(C)(O)[C@H]3CC[C@H](C(=O)O)CC3)s2)n1` (single isomer, unassigned) [Example 4.22, (trans)-4-((R or S)-1-hydroxy-1-(5-{6-methoxy-4-[(4-methylpyrimidin-2-yl)amino]pyridin-2-yl}-1,3-thiazol-2-yl)ethyl]cyclohexane carboxylic acid] as the compound, how does the IC50 read?
The IC50 was 7.15 nM.

Which IC50 does the source give for `CC(O)(c1ncc(-c2cc(Nc3nccc(C(F)(F)F)n3)cc(Cl)n2)s1)[C@H]1CC[C@H](C(=O)O)CC1` (single isomer, unassigned) [Example 4.23, (trans)-4-((R or S)-1-[5-(6-chloro-4-{[4-(trifluoromethyl)pyrimidin-2-yl]amino}pyridin-2-yl)-1,3-thiazol-2-yl]-1-hydroxyethyl} cyclohexanecarboxylic acid] here?
The IC50 was 5.2 nM.

For `COC(=O)c1ccc2c(c1)CCCC2(O)c1ncc(-c2cc(Nc3nccc(C(F)(F)F)n3)cc(C)n2)s1` (single isomer, unassigned) [Example 4.24, (R or S)-methyl 5-hydroxy-5-[5-(6-methyl-4-{[4-(trifluoromethyl)pyrimidin-2-yl]amino}pyridin-2-yl)-1,3-thiazol-2-yl]-5,6,7,8-tetrahydronaphthalene-2-carboxylate], which IC50 is on record?
The IC50 was 17.6 nM.

Which IC50 does the source give for `Cc1cc(Nc2nccc(C(F)(F)F)n2)cc(-c2cnc(C3(O)CCCc4cc(C(=O)O)ccc43)s2)n1` (single isomer, unassigned) [Example 4.25, (R or S)-5-hydroxy-5-[5-(6-methyl-4-{[4-(trifluoromethyl)pyrimidin-2-yl]amino}pyridin-2-yl)-1,3-thiazol-2-yl]-5,6,7,8-tetrahydronaphthalene-2-carboxylic acid] here?
Its IC50 is 0.397 nM.

Which IC50 does the source give for `Cc1cc(Nc2cc(C(F)(F)F)ncn2)nc(-c2cnc(C3(O)CCC(C(=O)O)C(C)(C)C3)s2)c1` (centres unmarked) [Example 1.2, 4-hydroxy-2,2-dimethyl-4-[5-(4-methyl-6-{[6-(trifluoromethyl)pyrimidin-4-yl]amino}pyridin-2-yl)-1,3-thiazol-2-yl]cyclohexane-carboxylic acid] here?
Its IC50 is 1.17 nM.

With `COC(=O)C1CCC(O)(c2ncc(-c3cc(Nc4nccc(C(F)(F)F)n4)cc(C)n3)s2)CC1(C)C` (centres unmarked) [Example 1.8, methyl 4-hydroxy-2,2-dimethyl-4-[5-(6-methyl-4-{[4-(trifluoromethyl)pyrimidin-2-yl]amino}pyridin-2-yl)-1,3-thiazol-2-yl] cyclohexane-carboxylate] as the compound, how does the IC50 read?
Its IC50 is 8.37 nM.

Which IC50 does the source give for `COC(=O)C1CCC(O)(c2ncc(-c3nc(C)cc(Nc4cc(C(F)(F)F)ccn4)n3)s2)CC1(C)C` (centres unmarked) [Example 1.10, methyl 4-hydroxy-2,2-dimethyl-4-[5-(4-methyl-6-{[4-(trifluoromethyl)pyridin-2-yl]amino}pyrimidin-2-yl)-1,3-thiazol-2-yl]cyclohexane-carboxylate] here?
The IC50 was 8.85 nM.

With `COC(=O)C1CCC(O)(c2ncc(-c3cc(Nc4nccc(OC(C)C)n4)cc(C)n3)s2)CC1(C)C` (centres unmarked) [Example 1.15, methyl 4-hydroxy-2,2-dimethyl-4-[5-(6-methyl-4-{[4-(1-methylethoxy)pyrimidin-2-yl]amino}pyridin-2-yl)-1,3-thiazol-2-yl] cyclohexane-carboxylate] as the compound, how does the IC50 read?
Its IC50 is 10.4 nM.

Which IC50 does the source give for `Cc1cc(Nc2nccc(OC(C)C)n2)cc(-c2cnc(C3(O)CCC(C(=O)O)C(C)(C)C3)s2)n1` (centres unmarked) [Example 1.16, 4-hydroxy-2,2-dimethyl-4-[5-(6-methyl-4-{[4-(1-methylethoxy)pyrimidin-2-yl]amino}pyridin-2-yl)-1,3-thiazol-2-yl] cyclohexane-carboxylic acid] here?
Its IC50 is 0.697 nM.

With `Cc1cc(Nc2nccc(C(F)(F)F)n2)cc(-c2cnc(C3(O)CCC3)s2)n1` [Example 2.1, 1-(5-(6-Methyl-4-((4-(trifluoromethyl)pyrimidin-2-yl)amino)pyridin-2-yl)thiazol-2-yl)cyclobutanol] as the compound, how does the IC50 read?
The IC50 was 26.4 nM.

Which IC50 does the source give for `Cc1cc(Nc2ncnc(C)n2)cc(-c2cnc([C@@]3(O)CC[C@H](C(=O)O)C(C)(C)C3)s2)c1` [Example 2.2, (1S,4R)-4-hydroxy-2,2-dimethyl-4-(5-{3-methyl-5-[(4-methyl-1,3,5-triazin-2-yl)amino]phenyl}-1,3-thiazol-2-yl)cyclohexanecarboxylic acid] here?
Its IC50 is 52.3 nM.

Which IC50 does the source give for `OC1(c2ncc(-c3cncc(Nc4nccc(C(F)(F)F)n4)c3)s2)CCC1` [Example 2.3] here?
Its IC50 is 189 nM.

With `Cc1cc(Nc2nccnn2)cc(-c2cnc(C3(O)CCC3)s2)c1` [Example 3.2, 1-{5-[3-methyl-5-(1,2,4-triazin-3-ylamino)phenyl]-1,3-thiazol-2-yl}cyclobutanol] as the compound, how does the IC50 read?
Its IC50 is 1010 nM.

Which IC50 does the source give for `CCOc1cc(Nc2nccc(C(F)(F)F)n2)cc(-c2cnc(C3(O)CCC3)s2)n1` [Example 4.1, 1-(5-(6-Ethoxy-4-((4-(trifluoromethyl)pyrimidin-2-yl)amino)pyridin-2-yl)thiazol-2-yl)cyclobutanol] here?
Its IC50 is 111 nM.

For `OC1(c2ncc(-c3cccc(Nc4cnccn4)n3)s2)CCC1` [Example 4.2, 1-{5-[6-(pyrazin-2-ylamino)pyridin-2-yl]-1,3-thiazol-2-yl}cyclobutanol], which IC50 is on record?
The IC50 was 35.2 nM.

Which IC50 does the source give for `Cc1cc(-c2cnc(C3(O)CCC3)s2)nc(Nc2cc(C(F)(F)F)ccn2)n1` [Example 4.4, 1-[5-(6-methyl-2-{[4-(trifluoromethyl)pyridin-2-yl]amino}pyrimidin-4-yl)-1,3-thiazol-2-yl]cyclobutanol] here?
The IC50 was 43.4 nM.

For `Cc1cc(Nc2cc(C(F)(F)F)ccn2)nc(-c2cnc(C3(O)CCC3)s2)n1` [Example 4.5, 1-[5-(4-methyl-6-{[4-(trifluoromethyl)pyridin-2-yl]amino}pyrimidin-2-yl)-1,3-thiazol-2-yl]cyclobutanol], which IC50 is on record?
Its IC50 is 4.39 nM.

For `Cc1ccnc(Nc2ccc(-c3cnc(C4(O)CCC(C(=O)O)CC4)s3)cc2C)c1` (stereo not drawn) [Example 4.13, cis-4-hydroxy-4-(5-{3-methyl-4-[(4-methylpyridin-2-yl)amino]phenyl}-1,3-thiazol-2-yl)cyclohexanecarboxylic acid], which IC50 is on record?
The IC50 was 43.6 nM.

For `Cc1cc(Nc2nccc(C(F)(F)F)n2)cc(-c2cnc(C3(O)CCc4cc(C(=O)O)ccc43)s2)n1` [Example 4.26, (1R, or 1S)-1-hydroxy-1-[5-(6-methyl-4-{[4-(trifluoromethyl)pyrimidin-2-yl]amino}pyridin-2-yl)-1,3-thiazol-2-yl]-2,3-dihydro-1H-indene-5-carboxylic acid], which IC50 is on record?
Its IC50 is 0.0959 nM.

Tested on: PGD2
Assay: not given
Conditions: dosed intranasally, phase I/II study, allergic rhinitis; cited from earlier work

Which “change in PGD2” value does the source give for `Oc1cccc(Nc2ncc(F)c(Nc3cccc(O)c3)n2)c1` [Example R112] here?
Its value is “statistically significant decrease in PGD2”.

And the clinical safety?
The clinical safety was “safe across a range of indicators”.

Tested on: not given
Assay: not given
Conditions: phase II clinical trial, allergic rhinitis; cited from earlier work

For `Oc1cccc(Nc2ncc(F)c(Nc3cccc(O)c3)n2)c1` [Example R112], which efficacy versus placebo is on record?
Its efficacy versus placebo is “lack of efficacy versus placebo”.
